Data published in patent publication US9048628B2, “Solid-state dye laser medium and process for production thereof” (KYUSHU UNIVERSITY, NATIONAL UNIVERSITY CORPORATION, priority 2011, dated 2015).

Experiments:
[1] = Maximum concentration soluble in polydimethylsiloxane (PDMS) when silicone oil was used; format: physicochemical; settings: silicone oil used as in Example 2
Description: A DFB laser was produced in the same manner as in Example 1, except that a silicone oil (KF-1065, produced by Shin-Etsu Chemical Co., Ltd.) was used instead of toluene, and that the step of removing toluene was not performed.
(§1) Using the dyes indicated below, maximum concentrations at which they were soluble in polydimethylsiloxane (PDMS) were investigated in the same manners as in Examples 1 and 2.

[2] = Maximum concentration soluble in polydimethylsiloxane (PDMS) when toluene was used; format: physicochemical
Procedure: Pyrromethene 597 (PM597, produced by Exciton) as a dye was dissolved in toluene to prepare a solution of a saturated concentration (100 to 130 mmol/L). This dye solution was mixed at a mixing ratio of […] (volume ratio) with a dimethylsiloxane oligomer (SIM-360, produced by Shin-Etsu Chemical Co., Ltd.) being a polydimethylsiloxane precursor, and the mixture was stirred for 2 days for thorough uniform dispersing. Then, the dispersion was further heated at 72° C. to evaporate toluene, thus adjusting the system to a final dye concentration of 3 mmol/L.
as §1

[3] = dye unchanged, without silicone oil

Row | Behavior of dissolution in PDMS when silicone oil was used: State [1] | Highest concentration dissolving in dimethylsiloxane [2, 3] [mmol/L] | Behavior of dissolution in PDMS when toluene was used: State ([2]; toluene used as in Example 1) | SMILES | Dissolution in dimethylsiloxane (in words) [2, 3]
1 | dissolved | – | – | CCC1=C(C)C2=C(COC(C)=O)c3c(C)c(CC)c(C)n3[B-](F)(F)[N+]2=C1C [PM605] | –
2 | dissolved | – | – | CC1=C(C)C(C)=[N+]2C1=C(C#N)c1c(C)c(C)c(C)n1[B-]2(F)F [PM650] | poses difficulty in dissolving to a lower limit concentration at which laser oscillation becomes possible
3 | dispersed | – | – | CC1=C(S(=O)(=O)[O-])C(C)=[N+]2C1=C(C)c1c(C)c(S(=O)(=O)[O-])c(C)n1[B-]2(F)F.[Na+].[Na+] [PM556] | –
4 | lumpy→ | – | – | CCCCC1=C(C)C2=C(C)c3c(C)c(CCCC)c(C)n3[B-](F)(F)[N+]2=C1C [PM580] | –
5 | dissolved | – | – | CCC1=C(C)C2=C(C)c3c(C)c(CC)c(C)n3[B-](F)(F)[N+]2=C1C [PM567] | –
6 | dissolved | 3 | dissolved | CC1=C(C(C)(C)C)C(C)=[N+]2C1=C(C)c1c(C)c(C(C)(C)C)c(C)n1[B-]2(F)F [PM597] | –
7 | lumpy→ | – | – | CCN=c1cc2oc3cc(NCC)c(C)cc3c(-c3ccccc3C(=O)OCC)c-2cc1C.Cl [Rh6G] | –
